Test results: patent US20040265300A1, “Chimeric molecules containing a module able to target specific cells and a module regulating the apoptogenic function of the permeability transition pore complex (PTPC)” (priority 2001, published 2004)
pKd: −log10 of the molar value. Ends that are not written are not given here. Peptide text beside a SMILES is read from it. * marks the point of attachment. Biotin = O=C1N[C@H]2[C@H](CS[C@H]2CCCCC(=O)*)N1

Columns and labels:
[1] = test system: permeability transition pore (PTP); experiment: Swelling of isolated mitochondria (large amplitude swelling, 90° light scattering); type: biochemical, rat; parameters: key to Induction of Mitochondrial swelling (sw): +++ rapid sw; ++ low sw; + very low sw; − no sw; settings: for Induction of Mitochondrial swelling (sw): 5 μM, t 20 min
Description: Mitochondria are purified from rat liver, as described (Costantini et al., 1996), and resuspended in 250 mM sucrose +0.1 mM EGTA +10 mM -tris[hydroxymethyl]methyl-2-Aminoethanesulfonic acid, pH=7.4). For the induction of PT, mitochondria (0.5 mg protein per ml) are resuspended in PT buffer (200 mM sucrose, 10 mM Tris-MOPS (pH 7.4), 5 MM Tris-succinate, 1 mM Tris-phosphate, 2 μM rotenone, and 10 μM EGTA-Tris), and monitored in an F4500 fluorescence spectrometer (Hitachi, Tokyo, Japan) for the 90° light scattering of light (545 nm) to determine large amplitude swelling after addition of 2 mM atractyloside (Atr), 1 μM cyclosporin A (CsA; Novartis, Basel, Switzerland), 5 μM CaCl2, and/or 0.5 to 20 μM of pTarg-pTox or pTarg-pSave. For the determination of the ΔΨm, mitochondria (0.5 mg protein per ml) are incubated in a buffer supplemented with 1μM rhodamine 123 (Molecular Probes, Eugene, OR) and the dequenching of rhodamine fluorescence (excitation 505 nm, emission 525 nm) is measured as described (Shimizu et al., 1998). Supernatants from mitochondria (6800 g for 15 min; then 20 000 g for 1 h; 4° C.) are frozen at −80° C. until determination of apoptogenic activity on isolated nuclei, DEVD-afc cleaving activity, and immunodetection of cytochrome c and AIF. Cytochrome c and AIF are detected by means of a monoclonal antibody (clone 7H8.2C12, Pharmingen) and a polyclonal rabbit anti-serum (Susin et al. 1999) respectively.

purified ANT = target: T1, purified ANT (Rattus norvegicus, UniProt Q05962); type: binding; settings: for binding to purified ANT: surface plasmon resonance; for pKd: one ANT concentration only, 50 nM, read-out: relative affinities of ANT for the peptide
T1 sequence (Q05962 1-298): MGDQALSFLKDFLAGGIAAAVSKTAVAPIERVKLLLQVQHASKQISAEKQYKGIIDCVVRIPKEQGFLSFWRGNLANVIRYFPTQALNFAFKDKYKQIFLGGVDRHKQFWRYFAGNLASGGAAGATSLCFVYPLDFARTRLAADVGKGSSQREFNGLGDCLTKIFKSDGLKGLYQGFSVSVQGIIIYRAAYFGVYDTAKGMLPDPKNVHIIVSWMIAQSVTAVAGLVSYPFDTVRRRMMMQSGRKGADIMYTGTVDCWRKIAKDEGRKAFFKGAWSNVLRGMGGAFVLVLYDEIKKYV
Description: (§1) Sensor Chips SA (streptavidin coated sensor chips) were used for immobilisation of the different peptides. Tox1 was immobilised at a density of 0.7 ng/mm^2, Tox0 at a density of 3.7 ng/mm^2,. Ctrl Tox0 at a density of 1.4 ng/mm^2, Tox5 at a density of 1 ng/mm^2, Tox6 at a density of 1 ng/mm^2, Save 1 at a density of 1.3 ng/mm^2, and the control peptide at a density of 0.8 ng/mm^2. Association and dissociation kinetics of ANT and VDAC interactions were followed at a rate of 10 μL/min for 10 minutes (5 minutes association and 5 minutes dissociation). The ligand was regenerated with a 1 minute flux of KSCN 3M. The obtained sensorgrams were analysed by the B1Aeval 3.1 software using the method of double references (Myszka D.G. 2000. Kinetic, equilibrium and thermodynamic analysis of macromolecular interactions with BIACORE. Methods Enzymol. 323:325-340). From the sensorgrams with the ligands were first substracted the sensorgrams obtained with the corresponding analyte solvents. A second substraction was performed with the sensorgrams obtained with the control peptide ligand. The control peptide for the Tox and Save peptides was biot-H19C corresponding to the sequence of the β2-adrenergic receptor (Lebesgue D., Wallukat G., Mijares A., Granier C., Argibay J., and Hoebeke J. (1998) An agonist-like monoclonal antibody to the human β 2-adrenergic receptor. Eur.J. Pharmacol. 348:123-133). The control peptide for Tox0 was Ctr1 Tox0.

purified VDAC = purified VDAC (Homo sapiens, UniProt P21796); experiment: Surface plasmon resonance, immobilised peptides with purified VDAC; type: binding; settings: for specific binding of VDAC: 50 nM VDAC
Sequence of purified VDAC (P21796 whole entry, species assumed): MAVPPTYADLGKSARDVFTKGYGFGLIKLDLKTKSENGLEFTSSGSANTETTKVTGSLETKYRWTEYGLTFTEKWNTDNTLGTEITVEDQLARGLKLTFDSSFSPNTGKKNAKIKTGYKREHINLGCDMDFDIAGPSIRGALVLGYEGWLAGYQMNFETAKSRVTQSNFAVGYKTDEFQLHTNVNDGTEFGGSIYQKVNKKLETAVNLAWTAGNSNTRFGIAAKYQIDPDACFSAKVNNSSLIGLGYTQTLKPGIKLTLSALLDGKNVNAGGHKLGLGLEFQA
Description: as §1

Molecule: [Ca+2] [Ca 2+, reference compound]
- Mitrochondrial swelling (sw) % ([1]; 100 μM): 100%

Molecule: C[C@H](NC(=O)[C@H](Cc1ccccc1)NC(=O)[C@H](Cc1ccc(O)cc1)NC(=O)[C@H](CCCNC(=N)N)NC(=O)[C@H](Cc1c[nH]c2ccccc12)NC(=O)[C@H](Cc1ccccc1)NC(=O)[C@H](CCC(N)=O)NC(=O)[C@@H](NC(=O)[C@H](CCCNC(=N)N)NC(=O)[C@H](CCCCN)NC(=O)[C@H](CC(=O)O)NC(=O)[C@H](CCCNC(=N)N)NC(=O)[C@H](CCCNC(=N)N)NC(=O)[C@H](CCCNC(=N)N)NC(=O)[C@H](CCC(N)=O)NC(=O)[C@H](CCCNC(=N)N)NC(=O)[C@H](CCCNC(=N)N)NC(=O)[C@H](CCCCN)NC(=O)[C@H](CCCCN)NC(=O)[C@H](CCCNC(=N)N)NC(=O)CCCC[C@@H]1SC[C@@H]2NC(=O)N[C@@H]21)[C@@H](C)O)C(=O)NCC(=O)N[C@@H](CC(N)=O)C(=O)O [Save1, Biot-RKKRRQRRR-DKRTQFWRYFAGN (hANT2)] (Biotin-RKKRRQRRRDKRTQFWRYFAGN-OH; C-terminus assumed)
- binding to purified ANT (purified ANT): Binds Purified ANT
- specific binding of VDAC (purified VDAC): did not result in any specific binding

Molecule: Biot-CNGRC-GG-HFRIGCRHSRIG [Tox1]
- Induction of Mitochondrial swelling (sw) [1]: ++
- binding to purified ANT (purified ANT): Binds Purified ANT
- association of VDAC with the peptide ligand (purified VDAC; VDAC concentrations ten times higher than ANT): extremely low association

Molecule: Biot-GG-HFRIGCRHSRIG [Ctr3Tox1]
- Induction of Mitochondrial swelling (sw) [1]: +

Molecule: C=C1[C@@H]2CC[C@H]3[C@]4(C)C[C@H](O[C@@H]5O[C@H](CO)[C@@H](OS(=O)(=O)O)[C@H](OS(=O)(=O)O)[C@H]5OC(=O)CC(C)C)C[C@@H](C(=O)O)[C@H]4CC[C@]3(C2)[C@H]1O [Atractyloside, atractyloside, reference compound]
- Mitrochondrial swelling (sw) % ([1]; 600 μM): 110%

Molecule: C[C@H](NC(=O)CCCC[C@@H]1SC[C@@H]2NC(=O)N[C@@H]21)C(=O)N[C@@H](CS)C(=O)N[C@@H](CC(=O)O)C(=O)N[C@@H](CS)C(=O)N[C@@H](CCCNC(=N)N)C(=O)NCC(=O)N[C@@H](CC(=O)O)C(=O)N[C@@H](CS)C(=O)N[C@@H](Cc1ccccc1)C(=O)N[C@@H](CS)C(=O)NCC(=O)NCC(=O)N[C@@H](CC(=O)O)C(=O)N[C@@H](CCCCN)C(=O)N[C@@H](CCCNC(=N)N)C(=O)N[C@H](C(=O)N[C@@H](CCC(N)=O)C(=O)N[C@@H](Cc1ccccc1)C(=O)N[C@@H](Cc1c[nH]c2ccccc12)C(=O)N[C@@H](CCCNC(=N)N)C(=O)N[C@@H](Cc1ccc(O)cc1)C(=O)N[C@@H](Cc1ccccc1)C(=O)N1CCC[C@H]1C(=O)NCC(=O)N[C@@H](CC(N)=O)C(=O)O)[C@@H](C)O [Tox6, Biot-ACDCRGDCFC-GG-DKRTQFWRYFPGN (hANT2m)] (Biotin-ACDCRGDCFCGGDKRTQFWRYFPGN-OH; N-terminus and C-terminus assumed)
- Induction of Mitochondrial swelling (sw) [1]: ++
- pKd (purified ANT): 9.15
- binding to purified ANT (purified ANT): Binds Purified ANT
- specific binding of VDAC (purified VDAC): did not result in any specific binding

Molecule: Biot-CNGRC-GG-HFAIGCRHSAIG (Biotin-CNGRCGGHFAIGCRHSAIG; cysteine pairing not given here) [Ctr1Tox1]
- Induction of Mitochondrial swelling (sw) [1]: −

Molecule: C[C@@H](O)[C@H](NC(=O)[C@H](CCCNC(=N)N)NC(=O)[C@H](CCCCN)NC(=O)[C@H](CC(=O)O)NC(=O)CNC(=O)CNC(=O)[C@H](CS)NC(=O)[C@H](CCCNC(=N)N)NC(=O)CNC(=O)[C@H](CC(N)=O)NC(=O)[C@H](CS)NC(=O)CCCC[C@@H]1SC[C@@H]2NC(=O)N[C@@H]21)C(=O)N[C@@H](CCC(N)=O)C(=O)N[C@@H](Cc1ccccc1)C(=O)N[C@@H](Cc1c[nH]c2ccccc12)C(=O)N[C@@H](CCCNC(=N)N)C(=O)N[C@@H](Cc1ccc(O)cc1)C(=O)N[C@@H](Cc1ccccc1)C(=O)N1CCC[C@H]1C(=O)NCC(=O)N[C@@H](CC(N)=O)C(=O)O [Tox5, Biot-CNGRC-GG-DKRTQFWRYFPGN (hANT2m)] (Biotin-CNGRCGGDKRTQFWRYFPGN-OH; N-terminus and C-terminus assumed)
- Induction of Mitochondrial swelling (sw) [1]: ++
- pKd (purified ANT): 10.00
- binding to purified ANT (purified ANT): Binds Purified ANT
- specific binding of VDAC (purified VDAC): did not result in any specific binding

Molecule: Biot-CNGRC-GG-CNGRC [Ctr2Tox1]
- Induction of Mitochondrial swelling (sw) [1]: −
